# Experimental data published in patent publication US20250136553A1, “ACYLSULFONAMIDE KAT6A INHIBITORS” (Olema Pharmaceuticals, Inc., priority 2023, published 2025).
# Molecular target: human-KAT6A (MYST domain 507-778 aa) (Homo sapiens (Human), UniProt Q92794)
# Experiment: KAT6A biochemical assay (TR-FRET)
# Conditions: @ 1 μM; reported where IC50 could not be determined; read-out: Percent inhibition at specific concentration (KAT6A)
# From the text: TR-FRET based methods were used for assaying compounds of the present invention for KAT6A enzyme inhibitory activity. TR-FRET is a homogeneous proximity assay where Europium-labelled anti-acetyl lysine antibody binds to the acetylated substrate labelled with biotin, which in turn binds to streptavidin-labelled APC fluorescence acceptor. Europium can transfer energy to APC in the complex and the interaction of two dye-labelled binding partners is detected by the energy transfer between a donor and an acceptor dye and the subsequent light emission by the acceptor dye. KAT6A transfer an acetyl group from acetyl CoA to lysine amino acids of histones/target proteins. […] The selected compound of the present invention and enzyme are incubated for 30 min on plate shaker at 300 rpm at 25° C. Next, 5 μL of substrate mix containing histone H4 peptide and acetyl-CoA in assay buffer is added to the plate. The final concentrations of H4 peptide and acetyl-CoA are 200 nM and 600 nM, respectively. Following 60 min reaction at 25° C. on plate shaker at 300 rpm, 5 μL of detection mix containing Europium-labelled anti-acetyl antibody and streptavidin-APC is added to the reaction wells. The plate is further incubated at 25° C. on shaker at 300 rpm and is read in TR-FRET mode (Ex:340 nm; Em: 615 nm and 665 nm) on a plate reader to achieve ˜5-7-fold activity. The percent inhibition was calculated from the ratio of the fluorescence (FL) intensities [(F665/F615)×10000) using the formula […]. IC50 values of the compounds were determined by fitting the dose-response data to sigmoidal curve fitting equation using Graph pad prism software V9.
# human-KAT6A (MYST domain 507-778 aa), sequence (Q92794 507-778): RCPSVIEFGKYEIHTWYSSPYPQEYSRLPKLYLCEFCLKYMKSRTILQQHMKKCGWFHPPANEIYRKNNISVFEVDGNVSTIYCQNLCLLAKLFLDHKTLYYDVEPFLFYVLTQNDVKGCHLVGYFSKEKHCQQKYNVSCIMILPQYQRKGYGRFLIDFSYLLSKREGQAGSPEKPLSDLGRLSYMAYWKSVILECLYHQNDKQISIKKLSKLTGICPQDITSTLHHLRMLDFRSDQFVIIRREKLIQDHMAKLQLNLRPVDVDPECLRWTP
row,inhibition at 1 µM [%],SMILES
1,35,"COc1cccc(OC)c1S(=O)(=O)NC(=O)c1ccc(Cn2cccn2)c(OC)c1OC [Compound 41, 4-((1H-pyrazol-1-yl)methyl)-N-((2,6-dimethoxyphenyl)sulfonyl)-2,3-dimethoxybenzamide]"

# Same assay, conditions: TR-FRET; histone H4 peptide 200 nM, acetyl-CoA 600 nM; read-out: KAT6A IC50
row,SMILES,IC50 [µM]
1,"CCc1ccc(OC)c(S(=O)(=O)NC(=O)c2ccc(Cn3cccn3)c(OC)c2)c1 [Compound 30, 4-((1H-pyrazol-1-yl)methyl)-N-((5-ethyl-2-methoxyphenyl)sulfonyl)-3-methoxybenzamide]",0.011
2,"COc1cc(C(=O)NS(=O)(=O)c2ccc(C(F)(F)F)cc2OC)ccc1Cn1cccn1 [Compound 31, 4-((1H-pyrazol-1-yl)methyl)-3-methoxy-N-((2-methoxy-4-(trifluoromethyl)phenyl)sulfonyl)benzamide]",0.044
3,"COc1cc(C(=O)NS(=O)(=O)c2cc(C(F)(F)F)ccc2OC)ccc1Cn1cccn1 [Compound 32, 4-((1H-pyrazol-1-yl)methyl)-3-methoxy-N-((2-methoxy-5-(trifluoromethyl)phenyl)sulfonyl)benzamide]",0.016
4,"COc1cccc(OC)c1S(=O)(=O)NC(=O)c1ccc(Cn2cccn2)c(OC(F)(F)F)c1 [Compound 33, 4-((1H-pyrazol-1-yl)methyl)-N-((2,6-dimethoxyphenyl)sulfonyl)-3-(trifluoromethoxy)benzamide]",0.01
5,COc1cccc(OC)c1S(=O)(=O)NC(=O)c1ccc(Cn2cccn2)c(C(F)(F)F)c1 [Compound 35],0.03
6,"COc1cc(C(=O)NS(=O)(=O)c2c(OC)cccc2-n2cccn2)ccc1Cn1cccn1 [Compound 36, 4-((1H-pyrazol-1-yl)methyl)-3-methoxy-N-((2-methoxy-6-(1H-pyrazol-1-yl)phenyl)sulfonyl)benzamide]",0.198
7,"COc1cccc(OC)c1S(=O)(=O)NC(=O)c1ccc(Cn2cccn2)c(OC(F)F)c1 [Compound 37, 4-((1H-pyrazol-1-yl)methyl)-3-(difluoromethoxy)-N-((2,6-dimethoxyphenyl)sulfonyl)benzamide]",0.01
8,"COc1cccc(OC)c1S(=O)(=O)NC(=O)c1ccc(Cn2cccn2)c(C2CC2)c1F [Compound 40, 4-((1H-pyrazol-1-yl)methyl)-3-cyclopropyl-N-((2,6-dimethoxyphenyl)sulfonyl)-2-fluorobenzamide]",0.015
9,"COc1cc(OC)c(S(=O)(=O)NC(=O)c2ccc(Cn3cccn3)c(OC)c2)cc1F [Compound 43, 4-((1H-pyrazol-1-yl)methyl)-N-((5-fluoro-2,4-dimethoxyphenyl)sulfonyl)-3-methoxybenzamide]",0.018
10,"COc1cc(C(=O)NS(=O)(=O)c2c(OC)cccc2OC)c(OC)cc1Cn1cccn1 [Compound 48, 4-((1H-pyrazol-1-yl)methyl)-N-((2,6-dimethoxyphenyl)sulfonyl)-2,5-dimethoxybenzamide]",0.051
11,"COc1cccc(OC)c1S(=O)(=O)NC(=O)c1ccc(Cn2cccn2)c(Br)c1F [Compound 49, 4-((1H-pyrazol-1-yl)methyl)-3-bromo-N-((2,6-dimethoxyphenyl)sulfonyl)-2-fluorobenzamide]",0.008
12,"COc1cc(C(=O)NS(=O)(=O)c2c(OC)cccc2OC)ccc1COc1ncccn1 [Compound 50, N-((2,6-dimethoxyphenyl)sulfonyl)-3-methoxy-4-((pyrimidin-2-yloxy)methyl)benzamide]",0.096
13,"COc1cc(C(=O)NS(=O)(=O)c2ccccc2OC(F)F)ccc1Cn1cccn1 [Compound 51, 4-((1H-pyrazol-1-yl)methyl)-N-((2-(difluoromethoxy)phenyl)sulfonyl)-3-methoxybenzamide]",0.051
14,"COc1cc(C(=O)NS(=O)(=O)c2c(OC)cccc2OC2CC2)ccc1Cn1cccn1 [Compound 52, 4-((1H-pyrazol-1-yl)methyl)-N-((2-cyclopropoxy-6-methoxyphenyl)sulfonyl)-3-methoxybenzamide]",0.009
15,"COc1cc(C(=O)NS(=O)(=O)c2ccccc2OCc2ccccn2)ccc1Cn1cccn1 [Compound 53, 4-((1H-pyrazol-1-yl)methyl)-3-methoxy-N-((2-(pyridin-2-ylmethoxy)phenyl)sulfonyl)benzamide]",0.031
16,"COc1cc(C(=O)NS(=O)(=O)c2cc(C(C)(C)O)ccc2OC)ccc1Cn1cccn1 [Compound 54, 4-((1H-pyrazol-1-yl)methyl)-N-((5-(2-hydroxypropan-2-yl)-2-methoxyphenyl)sulfonyl)-3-methoxybenzamide]",0.003
17,"COc1cc(C(=O)NS(=O)(=O)c2c(OC)cccc2OC)ccc1COc1nccs1 [Compound 58, N-((2,6-dimethoxyphenyl)sulfonyl)-3-methoxy-4-((thiazol-2-yloxy)methyl)benzamide]",0.177
18,"COc1cc(C(=O)NS(=O)(=O)c2c(OC)cccc2OC)ccc1Oc1nccs1 [Compound 59, N-((2,6-dimethoxyphenyl)sulfonyl)-3-methoxy-4-(thiazol-2-yloxy)benzamide]",0.033
19,"COc1cc(C(=O)NS(=O)(=O)c2c(OC)cccc2OCC(F)(F)F)ccc1Cn1cccn1 [Compound 68, 4-((1H-pyrazol-1-yl)methyl)-3-methoxy-N-((2-methoxy-6-(2,2,2-trifluoroethoxy)phenyl)sulfonyl)benzamide]",0.023
20,"COc1cccc(OC)c1S(=O)(=O)NC(=O)c1ccc(Cn2cccn2)c(OC)c1F [Compound 69, 4-((1H-pyrazol-1-yl)methyl)-N-((2,6-dimethoxyphenyl)sulfonyl)-2-fluoro-3-methoxybenzamide]",0.114
21,"COc1cc(C(=O)NS(=N)(=O)c2c(OC)cccc2OC)ccc1Cn1cccn1 (centres unmarked) [Compound 71, 4-((1H-pyrazol-1-yl)methyl)-N-(2,6-dimethoxyphenylsulfonimidoyl)-3-methoxybenzamide]",0.034

# Now from value to molecule:
row,IC50 [µM],SMILES
1,0.036,"COc1cccc(OC)c1S(=O)(=O)NC(=O)c1ccc(Cn2cccn2)c(C)c1 [Compound 34, 4-((1H-pyrazol-1-yl)methyl)-N-((2,6-dimethoxyphenyl)sulfonyl)-3-methylbenzamide]"
2,0.024,"COc1cc(C(=O)NS(=O)(=O)c2cc(O)ccc2OC)ccc1Cn1cccn1 [Compound 39, 4-((1H-pyrazol-1-yl)methyl)-N-((5-hydroxy-2-methoxyphenyl)sulfonyl)-3-methoxybenzamide]"
3,0.008,"COc1ccc(S(=O)(=O)NC(=O)c2ccc(Cn3cccn3)c(OC)c2)c(OC)c1 [Compound 42, 4-((1H-pyrazol-1-yl)methyl)-N-((2,4-dimethoxyphenyl)sulfonyl)-3-methoxybenzamide]"
4,0.009,"COc1cc(OC)c(S(=O)(=O)NC(=O)c2ccc(Cn3cccn3)c(OC)c2)cc1Cl [Compound 44, 4-((1H-pyrazol-1-yl)methyl)-N-((5-chloro-2,4-dimethoxyphenyl)sulfonyl)-3-methoxybenzamide]"
5,0.01,"COc1cc(OC)c(S(=O)(=O)NC(=O)c2ccc(Cn3cccn3)c(OC)c2)cc1Br [Compound 45, N-(5-bromo-2,4-dimethoxy-phenyl)sulfonyl-3-methoxy-4-(pyrazol-1-ylmethyl)benzamide]"
6,0.012,"COc1cc(C(=O)NS(=O)(=O)c2c(OC)ccc(Cl)c2OC)ccc1Cn1cccn1 [Compound 46, 4-((1H-pyrazol-1-yl)methyl)-N-((3-chloro-2,6-dimethoxyphenyl)sulfonyl)-3-methoxybenzamide]"
7,0.009,"COc1cc(OC)c(S(=O)(=O)NC(=O)c2ccc(Cn3cccn3)c(OC)c2)c(OC)c1 [Compound 47, 4-((1H-pyrazol-1-yl)methyl)-3-methoxy-N-((2,4,6-trimethoxyphenyl)sulfonyl)benzamide]"
8,0.011,"COc1cc(C(=O)NS(=O)(=O)c2c(OC)cccc2OC(C)C)ccc1Cn1cccn1 [Compound 55, 4-((1H-pyrazol-1-yl)methyl)-N-((2-isopropoxy-6-methoxyphenyl)sulfonyl)-3-methoxybenzamide]"
9,0.011,"COc1cc(C(=O)NS(=O)(=O)c2c(OC)ccc3c2CCCC3)ccc1Cn1cccn1 [Compound 57, 4-((1H-pyrazol-1-yl)methyl)-3-methoxy-N-((2-methoxy-5,6,7,8-tetrahydronaphthalen-1-yl)sulfonyl)benzamide]"
10,0.008,"COc1cc(C(=O)NS(=O)(=O)c2c(OC)ccc(C)c2OC)ccc1Cn1cccn1 [Compound 60, 4-((1H-pyrazol-1-yl)methyl)-N-((2,6-dimethoxy-3-methylphenyl)sulfonyl)-3-methoxybenzamide]"
11,0.006,"COc1cc(C(=O)NS(=O)(=O)c2c(OC)ccc(C3CC3)c2OC)ccc1Cn1cccn1 [Compound 61, 4-((1H-pyrazol-1-yl)methyl)-N-((3-cyclopropyl-2,6-dimethoxyphenyl)sulfonyl)-3-methoxybenzamide]"
12,0.013,"CCc1ccc(OC)c(S(=O)(=O)NC(=O)c2ccc(Cn3cccn3)c(OC)c2)c1OC [Compound 66, 4-((1H-pyrazol-1-yl)methyl)-N-((3-ethyl-2,6-dimethoxyphenyl)sulfonyl)-3-methoxybenzamide]"
13,0.011,"CCOc1cccc(OC)c1S(=O)(=O)NC(=O)c1ccc(Cn2cccn2)c(OC)c1 [Compound 67, 4-((1H-pyrazol-1-yl)methyl)-N-((2-ethoxy-6-methoxyphenyl)sulfonyl)-3-methoxybenzamide]"
